# Measurements reported in patent publication US8470381B2, “Spinosyn antifouling compositions, methods of use thereof and articles protected from attachment of biofouling organisms” (Entarco S.A., priority 2008, dated 2013).
# “And” between values parts separate entries of the source, which are not always exact repeats. Equal values may be shown once. “Also recorded” adds a separate entry of the source.
# Columns and labels:
# [1] = test system: Dunaliella tertiolecta; assay: Inhibition of the growth of the fouling microalgae in flask culture; type: cell-based; conditions: 10-^2 to 10^−9 mg spinosad/ml; cells counted each day
# Procedure: A water emulsion containing 23.2% w/w Tracer®=10% spinosad was used at the start of this assay. Dunaliella tertiolecta was maintained in stock cultures in 20 ml test tubes as seed cultures and maintained on seven day transfer cycle. The marine micro-algae were inoculated into 250 ml conical flasks containing 100 ml of filtered, sterilized seawater in F/2-Guillard-1975 growth medium. The initial 10% spinosad emulsion (coded Entarco 8205 10%), was further dissolved in distilled water and added at various concentrations to each algal culture for final concentrations ranging from 10-^2 mg spinosad/ml to 10^−9 mg spinosad/ml. Controls consisted of algal culture without the test solution. Each test group was comprised of 3 flasks.
# The typical culture goes through four phases. Lag phase is characterized by little or no multiplication of the cells. Log phase or exponential phase is when there is a rapid increase in the rate of cell division. During the next phase, called stationary phase, the number of living cells remain constant and there is no further growth. […] The growth of the algal cells in each flask was counted each day by haemocytometer. The entire growth and decline of the culture in the presence or absence of spinosad was determined (Targett, 1988 Allelochemistry in marine organisms: Chemical fouling and antifouling strategies).
# [2] = test system: barnacle cyprids (Balanus amphitrite Darwin); assay: Barnacle cyprid settlement assay and EC50 determination; type: in vivo; conditions: for % of set: dishes a, b, c and Total (mean), control mean 78
# Source text: The barnacle, Balanus amphitrite Darwin, is the most ubiquitous hard fouling organism found in all marine ecosystems, particularly in ports visited by commercial shipping. The methods used in this evaluation have been described in detail in a number of publications (Rittschof D, Clare A S, Gerhart D J, Avelin Mary, Bonavetura J (1991) Barnacle in vitro assays for biologically active substances: toxicity and settlement assays using mass cultured Balanus amphitrite amphitrite Darwin. Biofouling 6:115-122.
# The barnacle adults are cultured in the laboratory and allowed to spawn naturally. The larvae are harvested and grown in artificial culture systems until they reach the cyprid stage at which time the larvae become competent to attach to surfaces. Once attached, the cyprids transform into a pinhead barnacle, thus becoming permanently attached to the surface.
# The sample solution tested was a 23.2% w/w solution of Tracer in distilled water (equivalent to 10% w/w in pure spinosad or 100 mg spinosad/ml). The sample was stirred prior to making serial dilutions.
# The data are summarized in the Tables 2 and 3 below along with the calculations for the EC50. […] Thereafter, there was dose dependent attachment from 10^−5 and at lower concentrations, only reaching control values at […]. The EC50 calculation via probit analysis show an EC50 of 7×10^−8 mg/ml.
# Additional notes to the data below: 1. Set means the total number of cyprid larvae that have settled and attached on the surface of the petri dish. 2. Non-Set means the total number of cyprids that remain swimming in the seawater and not settled on the surface. 3. Data are expressed as the percentage of cyprids that settled on the surface. 4. Data are summarized and the mean, standard deviation (SD) and the standard error of the mean (SE) are calculated for samples. 5. Tests were conducted in replicates of three dishes per study group; each dish containing anywhere from 75 to 100 cyprids.
# [3] = test system: Alcaligenes sp (Al); assay: Agar diffusion antimicrobial assay against marine bacteria associated with Balanus amphitrite; type: cell-based; conditions: 24 hours
# Procedure: (§1) The effect of spinosad as a bacteriostatic compound was tested against four bacterial species using standard agar diffusion techniques, as described by Avelin et al., J. Chem. Ecol., 19(10), 2155-67 (1993). The bacteria used in the test were as follows: Aeromonas sp (Ae); Alcaligenes sp (Al); Flavobacterium sp (F); and Vibrio sp (V);
# (§2) The agar diffusion technique follows the original method by Acar (1980). In a sterilized petri dish 1 ml of 12 hour old nutrient broth culture, comprising of 3.7% of marine broth in distilled water, of each marine bacterial species was transferred along with 20 ml of antibiotic agar medium.
# (§3) Sterilized Whatman No. 1 paper discs (6.25 mm diameter) were loaded with the test solution (2.4% w/w Tracer in distilled water) at concentrations calculated in pure spinosad ranging from 10^−1 mg/10 μl to 10^−4 mg/10 μl. Control discs were loaded with only the vehicle. After 24 hours of exposure to the test solution, the zone of inhibition, i.e. the area around the disc devoid of marine bacterial growth was measured by determining the distance from the edge of the disc to the edge of the area showing no bacterial growth (mm).
# [4] = test system: Vibrio sp (V); assay: as above; type: cell-based; conditions: 24 hours
# Procedure: as §1, §2, §3
# [5] = test system: Flavobacterium sp (F); assay: as above; type: cell-based; conditions: 24 hours
# Procedure: as §1, §2, §3
# [6] = test system: Aeromonas sp (Ae); assay: as above; type: cell-based; conditions: isolate Ae1, 24 hours
# Procedure: as §1, §2, §3
substance,measurement,setting,value
spinosad,growth of Dunaliella tertiolecta (FIG. 1),[1],significant microalgae inhibitory properties which are dose dependent
same,% of set,[2]; 0.1 mg spinosad/ml,0%
same,% of set,[2]; 10−^2 mg spinosad/ml,0%
same,% of set,[2]; 10−^3 mg spinosad/ml,0%
same,% of set,[2]; 10−^4 mg spinosad/ml,0%
same,% of set,[2]; 10−^5 mg spinosad/ml,7% and 9% and 12%
same,% of set,[2]; 10−^7 mg spinosad/ml,31% and 34% and 42%
same,% of set,[2]; 10−^8 mg spinosad/ml,52% and 57% and 50%
same,% of set,[2]; 10−^9 mg spinosad/ml,63% and 61% and 70%
same,% of set,[2]; 10−^10 mg spinosad/ml,77% and 78% and 71%
same,% of set,[2]; 10−^11 mg spinosad/ml,77% and 79% and 72%
same,mortality of cyprids,[2]; all concentrations tested,absence of any mortality; also recorded: no mortality seen at all concentrations tested
same,cyprid settlement,[2]; from 10^−1 to 10^−4 mg/ml,no cyprid settlement
same,mortality of cyprids,[2]; highest concentration used (0.1 mg spinosad/ml),no mortality was observed
same,EC50 on the settlement of barnacle cyprids,[2]; probit analysis,0.07 ng/mL
same,zone of inhibition,"[3]; isolate Al1, 10^−1 mg/10 μl (10000 ppm spinosad)",8 mm
same,zone of inhibition,"[3]; isolate Al1, 10^−2 mg/10 μl (1000 ppm spinosad)",6 mm
same,zone of inhibition,"[3]; isolate Al1, 10^−3 mg/10 μl (100 ppm spinosad)",6 mm
same,zone of inhibition,"[3]; isolate Al1, 10^−4 mg/10 μl (10 ppm spinosad)",6 mm
same,zone of inhibition,"[3]; isolate Al2, 10^−1 mg/10 μl (10000 ppm spinosad)",7 mm
same,zone of inhibition,"[3]; isolate Al2, 10^−2 mg/10 μl (1000 ppm spinosad)",6.5 mm
same,zone of inhibition,"[3]; isolate Al2, 10^−3 mg/10 μl (100 ppm spinosad)",5.5 mm
same,zone of inhibition,"[3]; isolate Al2, 10^−4 mg/10 μl (10 ppm spinosad)",5.5 mm
same,zone of inhibition,"[4]; isolate V1, 10^−1 mg/10 μl (10000 ppm spinosad)",8 mm
same,zone of inhibition,"[4]; isolate V1, 10^−2 mg/10 μl (1000 ppm spinosad)",5.5 mm
same,zone of inhibition,"[4]; isolate V1, 10^−3 mg/10 μl (100 ppm spinosad)",5.5 mm
same,zone of inhibition,"[4]; isolate V1, 10^−4 mg/10 μl (10 ppm spinosad)",5.5 mm
same,zone of inhibition,"[4]; isolate V2, 10^−1 mg/10 μl (10000 ppm spinosad)",8 mm
same,zone of inhibition,"[4]; isolate V2, 10^−2 mg/10 μl (1000 ppm spinosad)",7 mm
same,zone of inhibition,"[4]; isolate V2, 10^−3 mg/10 μl (100 ppm spinosad)",6 mm
same,zone of inhibition,"[4]; isolate V2, 10^−4 mg/10 μl (10 ppm spinosad)",6 mm
same,zone of inhibition,"[5]; isolate F1, 10^−1 mg/10 μl (10000 ppm spinosad)",7.5 mm
same,zone of inhibition,"[5]; isolate F1, 10^−2 mg/10 μl (1000 ppm spinosad)",6 mm
same,zone of inhibition,"[5]; isolate F1, 10^−3 mg/10 μl (100 ppm spinosad)",6 mm
same,zone of inhibition,"[5]; isolate F1, 10^−4 mg/10 μl (10 ppm spinosad)",6 mm
same,zone of inhibition,"[5]; isolate F2, 10^−1 mg/10 μl (10000 ppm spinosad)",7.5 mm
same,zone of inhibition,"[5]; isolate F2, 10^−2 mg/10 μl (1000 ppm spinosad)",6 mm
same,zone of inhibition,"[5]; isolate F2, 10^−3 mg/10 μl (100 ppm spinosad)",6 mm
same,zone of inhibition,"[5]; isolate F2, 10^−4 mg/10 μl (10 ppm spinosad)",6 mm
same,zone of inhibition,[6]; 10^−1 mg/10 μl (10000 ppm spinosad),7.5 mm
same,zone of inhibition,[6]; 10^−2 mg/10 μl (1000 ppm spinosad),7 mm
same,zone of inhibition,[6]; 10^−3 mg/10 μl (100 ppm spinosad),7 mm
same,zone of inhibition,[6]; 10^−4 mg/10 μl (10 ppm spinosad),5.5 mm
